Where “and” joins values, the source holds several entries; their conditions need not be identical. Equal values may be shown once. Where a name gives a salt, the structure may show the parent alone.
Tests used:
[1] = test system: Spontaneously Hypertensive Rats; assay: Diuretic activity in spontaneously hypertensive rats; assay type: in vivo, male spontaneously hypertensive rats of Okamoto strain; conditions: 0-5 hour urine
Method: The diuretic activity of the compounds of this invention was determined according to the method of Chan, P. S. and Poorvin, D., Sequential method for combined screening antihypertensive and diuretic agents in the same spontaneously hypertensive rat. Clinical and Experimental Hypertension, 1 (6), 817-830 (1979).
Male spontaneously hypertensive rats of Okamoto strain, 16 weeks old, Taconic Farms Inc., were used in the test. These rats were kept on Purina laboratory chow and tap water ad libitum for 8 weeks before use. The male adult rats (about 300 g) were dosed by gavage with a test compound at 100 mg/kg at zero hour with the exception of one male adult rat in which the test compound dosage was 50 mg/kg. The test compound was suspended in 3% preboiled starch at 50 mg/ml. Each rat was put in metabolism cage. The 0-5 hour urine was collected and urinary sodium and potassium were determined using a Beckman Astra 4.

[2] = Stability in solution; assay type: physicochemical
[3] = test system: plasma renin activity; assay: Inhibition of evoked increase of plasma renin activity (PRA) in conscious rats; assay type: in vivo, male Wistar rats; conditions: oral, 30 min before provocative treatment, Wistar rats
Method: Inhibition of evoked increase of plasma renin activity was determined by the following test.
Compounds were tested for their ability to prevent drug-induced elevation of plasma renin activity (PRA) in concious, male Wistar rats (180-200 g, Charles River Lab.). PRA elevation was induced by a combined oral provocative treatment (C) of hydrochlorothiazide (10 mg/kg) and 1-(3-benzoyl-3-mercapto-2-methylpropionyl-L-proline, acetate (U.S. Pat. No. 4,226,775) (1 mg/kg), prepared by compounding in a mortar and pestle with preboiled 3% starch suspension. This treatment provided the daily maximum PRA. The daily minimum PRA was obtained from rats given oral starch suspension (S) alone. The magnitude of drug effect on PRA elevation was ascertained from rats pretreated orally with test agent (D), at the indicated doses, 30 minutes prior to administration of provocative treatment (C). The test agent was also compounded in preboiled 3% starch suspension. The dose volumes for both pretreatment and provocative treatment were 2 ml/kg. One hour after provocative treatment the rats were sacrificed by decapitation and the first 3 seconds of blood collected in two chilled vacutainer tubes containing 40 μl of 150 mg/ml tripotassium EDTA. The plasmas, which were obtained by centrifugation for 20 minutes at 4° C. and 3000×G, were incubated (one of each pair at 37° C., the other at 4° C.) at pH 6.8 in 50 mM phosphate buffer to produce angiotensin I. The incubates contained peptidase inhibitors to prevent angiotensin I degradation and the incubation buffer contained 1 mg/ml lysozyme (Sigma Grade III) used as an antiabsorbant. The incubates were diluted 20 fold in cold 100 mM tris buffer (pH adjusted to 7.4 with glacial acetic acid) also containing 1 mg/ml lysozyme, and then frozen. Diluted incubates were assayed within 3 days for angiotensin I content by radioimmunoassay according to a modification of the method of Haber, et al., J. Clin. Endocrin., 29, 1349-1355 (1969).
PRA is calculated as follows:
PRA([…])=PRA 37° C.-PRA 4° C.
Percent inhibition of PRA elevation is calculated as follows: [formula]

[4] = 100 mg/kg by gavage, hydrochloride
[5] = 100 mg/kg by gavage, hydrobromide

Compound	Potassium (urinary) ([1]; 100 mg/kg by gavage)	Sodium (urinary) ([1]; 100 mg/kg by gavage)	Volume (urine) ([1]; 100 mg/kg by gavage)	other results
C#CCOC(=O)N=P1(c2ccccc2)c2ccccc2Oc2ccccc21 [10,10-Dihydro-10-phenyl-10-[[(2-propynyloxy)carbonyl]imino]-10H-phenoxaphosphine]	0.61 MEQ/5 Hours	1.13 MEQ/5 Hours	10.5 mL	
CC(C)COC(=O)N=P1(c2ccccc2)c2ccccc2Oc2ccccc21 [10,10-Dihydro-10-[[(2-methylpropoxy)carbonyl]-imino]-10-phenyl-10H-phenoxaphosphine]	0.64 MEQ/5 Hours	1.63 MEQ/5 Hours	12.8 mL	
CC(C)OC(=O)N=P1(c2ccccc2)c2ccccc2Oc2ccccc21 [10,10-Dihydro-10-[[(1-methylethoxy)carbonyl]imino]-10-phenyl-10H-phenoxaphosphine]	0.66 MEQ/5 Hours	2.30 MEQ/5 Hours	16.5 mL	
COC(=O)N=P1(c2ccccc2)c2ccccc2Oc2ccccc21 [10,10-Dihydro-10-[(methoxycarbonyl)imino]-10-phenyl-10H-phenoxaphosphine]	0.74 MEQ/5 Hours	1.48 MEQ/5 Hours	14.0 mL	
O=C(N=P1(c2ccccc2)c2ccccc2Oc2ccccc21)OC1CCOC1 (stereo not drawn) [10,10-Dihydro-10-phenyl-10-[[[(tetrahydro-3-furanyl)-oxy]carbonyl]imino]-10H-phenoxaphosphine]	0.73 MEQ/5 Hours	1.49 MEQ/5 Hours	14.3 mL	
O=C(N=P1(c2ccccc2)c2ccccc2Oc2ccccc21)OCc1ccncc1 [10,10-dihydro-10-phenyl-10-[[(4-pyridylmethoxy)carbonyl]imino]-10H-phenoxaphosphine]	0.40 MEQ/5 Hours	2.28 MEQ/5 Hours	18.0 mL	
N=P1(c2ccccc2)c2ccccc2Oc2ccccc21 [10,10-Dihydro-10-imino-10-phenyl-10H-phenoxaphosphine, bis(t] [10,10-Dihydro-10-imino-10-phenyl-10H-phenoxaphosphine, bis(trifluoroacetate)]	0.66 MEQ/5 Hours	1.16 MEQ/5 Hours	12.5 mL	
N=P1(c2ccccc2)c2ccccc2Oc2ccccc21 [10,10-Dihydro-10-imino-10-phenyl-10H-phenoxaphosphine, hydrochloride]				Potassium (urinary) [1, 4]: 0.59 MEQ/5 Hours; Sodium (urinary) [1, 4]: 2.01 MEQ/5 Hours; Volume (urine) [1, 4]: 16.5 mL
N=P1(c2ccccc2)c2ccccc2Oc2ccccc21 [10,10-Dihydro-10-imino-10-phenyl-10H-phenoxaphosphine, sulfa] [10,10-Dihydro-10-imino-10-phenyl-10H-phenoxaphosphine, sulfate]	0.18 MEQ/5 Hours	1.56 MEQ/5 Hours	9.8 mL	stability in solution [2]: stable in solution; Percent Inhibition of Plasma Renin Elevation, Av. % Inhibition ([3]; 1 mg/kg): 38%; Percent Inhibition of Plasma Renin Elevation, Av. % Inhibition ([3]; 4 mg/kg): 31% and 42%; Percent Inhibition of Plasma Renin Elevation, Av. % Inhibition ([3]; 8 mg/kg): 67%
C=CCOC(=O)N=P1(c2ccccc2)c2ccccc2Oc2ccccc21 [10,10-Dihydro-10-phenyl-10-[[(2-propenyloxy)carbonyl]imino]-10H-phenoxaphosphine]	0.61 MEQ/5 Hours	1.27 MEQ/5 Hours	12.0 mL	
O=C(N=P1(c2ccccc2)c2ccccc2Oc2ccccc21)OCc1cccnc1 [10,10-Dihydro-10-phenyl-10-[[(3-pyridylmethoxy)carbonyl]imino]-10H-phenoxaphosphine]	0.59 MEQ/5 Hours	2.61 MEQ/5 Hours	20.5 mL	
N=P1(c2ccccc2)c2ccccc2Oc2ccccc21 [10,10-Dihydro-10-imino-10-phenyl-10H-phenoxaphosphine, hydrobromide]				Potassium (urinary) [1, 5]: 0.26 MEQ/5 Hours; Sodium (urinary) [1, 5]: 1.12 MEQ/5 Hours; Volume (urine) [1, 5]: 8.0 mL
CCOC(=O)N=P1(c2ccccc2)c2ccccc2Oc2ccccc21 [10,10-Dihydro-10-[(ethoxycarbonyl)imino]-10-phenyl-10H-phenoxaphosphine]	0.49 MEQ/5 Hours	2.20 MEQ/5 Hours	19.0 mL	Percent Inhibition of Plasma Renin Elevation, Av. % Inhibition ([3]; 1 mg/kg): 33%; Percent Inhibition of Plasma Renin Elevation, Av. % Inhibition ([3]; 2 mg/kg): 54%; Percent Inhibition of Plasma Renin Elevation, Av. % Inhibition ([3]; 4 mg/kg): 78%; Percent Inhibition of Plasma Renin Elevation, Av. % Inhibition ([3]; 8 mg/kg): 91%; Percent Inhibition of Plasma Renin Elevation, Av. % Inhibition ([3]; 25 mg/kg): 84%
O=C(N=P1(c2ccccc2)c2ccccc2Oc2ccccc21)OCC1CC1 [10-[[(Cyclopropylmethoxy)carbonyl]imino]-10,10-dihydro-10-phenyl-10H-phenoxaphosphine]	0.75 MEQ/5 Hours	1.41 MEQ/5 Hours	10.8 mL	
O=C(N=P1(c2ccccc2)c2ccccc2Oc2ccccc21)OCc1ccccc1 [10,10-Dihydro-10-phenyl-10-[[(phenylmethoxy)carbonyl]imino]-10H-phenoxaphosphine]	0.56 MEQ/5 Hours	1.32 MEQ/5 Hours	12.3 mL	
O=C(N=P1(c2ccccc2)c2ccccc2Oc2ccccc21)OC1CCCC1 [10-[[(Cyclopentyloxy)carbonyl]imino]-10,10-dihydro-10-phenyl-10H-phenoxaphosphine]	0.60 MEQ/5 Hours	1.71 MEQ/5 Hours	14.0 mL	
O=C(N=P1(c2ccccc2)c2ccccc2Oc2ccccc21)OCc1ccccn1 [10,10-Dihydro-10-phenyl-10-[[(2-pyridylmethoxy)carbonyl]imino]-10H-phenoxaphosphine]				Potassium (urinary) ([1]; 50 mg/kg by gavage): 0.74 MEQ/5 Hours; Sodium (urinary) ([1]; 50 mg/kg by gavage): 1.26 MEQ/5 Hours; Volume (urine) ([1]; 50 mg/kg by gavage): 10.8 mL

From patent US4777290A, “10,10-dihydro-10-[(substituted-carbonyl)imino]-10-phe nyl-10H-phenoxaphosphines” (American Cyanamid Company, priority 1987, dated 1988)
